Experimental data: patent publication US7553868B2, “Thiophene carboxamides as inhibitors of the enzyme IKK-2” (AstraZeneca AB, priority 2003, dated 2009)

How the values were obtained:
IKK-2 = biological target: T1, IKK-2 (Homo sapiens, UniProt O14920); test: IKK-2 filter kinase assay; type: biochemical; conditions: 1 μM ATP, 1-53 GST-IκB substrate, read-out: Inhibition of IKK-2
T1 sequence (O14920 1-756): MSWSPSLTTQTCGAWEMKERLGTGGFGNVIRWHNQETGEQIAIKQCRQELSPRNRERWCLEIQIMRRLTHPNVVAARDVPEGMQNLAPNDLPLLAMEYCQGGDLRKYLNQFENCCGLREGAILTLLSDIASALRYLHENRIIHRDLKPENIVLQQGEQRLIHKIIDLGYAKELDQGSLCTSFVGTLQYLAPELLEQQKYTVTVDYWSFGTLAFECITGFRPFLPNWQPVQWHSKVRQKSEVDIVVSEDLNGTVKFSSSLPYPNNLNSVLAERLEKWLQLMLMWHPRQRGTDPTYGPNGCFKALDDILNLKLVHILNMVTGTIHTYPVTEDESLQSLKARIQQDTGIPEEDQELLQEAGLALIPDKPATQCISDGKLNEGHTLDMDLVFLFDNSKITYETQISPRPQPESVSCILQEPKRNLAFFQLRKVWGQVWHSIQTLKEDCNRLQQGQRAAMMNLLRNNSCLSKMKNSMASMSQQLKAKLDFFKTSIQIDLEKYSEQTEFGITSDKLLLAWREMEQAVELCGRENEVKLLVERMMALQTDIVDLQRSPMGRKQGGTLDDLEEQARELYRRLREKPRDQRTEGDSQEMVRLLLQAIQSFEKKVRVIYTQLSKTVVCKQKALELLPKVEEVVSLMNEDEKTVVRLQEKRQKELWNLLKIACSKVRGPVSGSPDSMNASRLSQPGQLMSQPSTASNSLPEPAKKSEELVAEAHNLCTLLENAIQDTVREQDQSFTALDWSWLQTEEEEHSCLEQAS
Method: IKK-2 Filter Kinase Assay
The test compounds were dissolved to 10 mM in dimethylsulphoxide (DMSO). The compounds were then diluted 1 in 40 in kinase buffer (50 mM Tris, pH 7.4 containing 0.1 mM EGTA, 0.1 mM sodium orthovanadate and 0.1% β-mercaptoethanol). 1 in 3 serial dilutions were made from this solution with 2.5% DMSO in kinase buffer. 20 μl of compound dilution was added to wells of a 96 well plate in duplicate. 20 μl 2.5% DMSO in kinase buffer instead of compound was added to control wells (0% inhibition). […] 10 μl of a mixture of magnesium acetate, unlabelled ATP, and ^33P-labelled ATP was added to each well made such that the final concentration was 10 mM magnesium acetate, 1 μM ATP and 0.1 μCi ^33P ATP. […] The final reaction volume was 50 μl.
The kinase reactions were incubated at 21° C. for 80 minutes and the reaction stopped by precipitating the protein by the addition of an equal volume (50 μl) of 20% trichloroacetic acid (TCA). The precipitate was allowed to form for 10 minutes and then filtered onto a GF/C unifilter 96 well plate. Each filter was washed twice with approximately 1 ml 2% TCA. The filter plate was dried at 30-40° C. for 60 minutes, 20 μl scintillant was added to each well and the plate sealed and radioactivity counted on a Packard Topcount microplate scintillation counter.

[1] = Compound permeability and efflux potential using Caco-2 cell monolayers; type: in vitro ADME, human; parameters: Caco-2 Assay Papp: unit not given here; conditions: human, Caco-2; 10 μM compound, pH 7.4, 120 min at 37° C.; efflux ratio; read-out: Caco-2 Assay Papp (B-A)/Papp(A-B) Ratio
Excerpt: (§1) Assessment of Compound Permeability and Efflux Potential using CACO-2 Cell Monolayers.
(§2) Caco-2 cells are a cell line derived from human colon cancer cells. The Caco-2 cells retain many of the properties of the human gut, including tight junctions and transporter proteins (e.g. pgp transporter), and are used primarily to assess the potential of compounds to be absorbed after oral administration. In this assay protocol, transports in the apical to basolateral direction (A-B direction) as well as in the opposite direction (B-A direction) are determined to assess both permeability and efflux potentials of the test compounds.
(§3) Cells are seeded at a density of 100,000 cells/well onto 1 μm filters within each well of 24-well plates (Beckton-Dickinson, UK) and grown until an intact monolayer of the cells is formed across each well (14 days).
(§4) When ready for use the intactness of the monolayers is assessed using measurement of the Trans-Epithelial Resistance (TEER) within each well. If TEERs are acceptable, each test compound is added to pH 7.4 buffer to a concentration of 10 μM in either the upper (Apical; A) or lower (Basolateral; B) chambers of the individual wells of the 24-well plates in duplicate, resulting in replicate measurements of the permeability of each compound through the monolayers in both the A-B and B-A directions. Four reference compounds are incubated alongside test compounds for quality control purposes (low, medium and high permeability plus one known efflux substrate).
(§5) After mixing, an aliquot of the donor chamber is taken immediately for analysis (TO). The plates are then incubated for 120 min at 37° C., after which a further aliquot is taken from the donor chamber (used to assess recovery over the duration of the experiment), while a similar aliquot is taken from the recipient chamber at this time (T120 sample).
(§6) All sample manipulations are undertaken on a Tecan Genesis RS200 robot.
(§7) All samples are analysed using LC-electrospray MS (both + and − mode), and peak areas used to quantify each test agent.
(§8) From the data obtained the rate of transfer (Papp) of each compound across the monolayer is calculated in either the A-B or B-A directions. From the Papp(A-B) data, the potential human absorption is categorised as LOW (Papp<=[…].cm^2.sec^−1), PARTIAL (Papp>0.5<=2.9×10^6 cm^2.sec^−1) or HIGH (Papp>2.9×10^6.cm^2.sec^−1), while from the Papp(B-A)/Papp(A-B) ratio, the potential for efflux of the test compound is assessed, where a ratio≧5 is categorised as HIGH, and <5 is categorised as LOW.

Caco-2 cell monolayers = test: as above; type: in vitro ADME, human; parameters: Caco-2 Assay Papp: unit not given here; conditions: 10 μM compound, pH 7.4, 120 min at 37° C.; Papp(A-B) used for absorption category
Excerpt: as §1, §2, §3, §4, §5, §6, §7, §8

IC50 (IKK-2)	efflux ratio at 120 min, 10 μM [1]	Caco-2 Assay Papp (Caco-2 cell monolayers)	SMILES
10 nM	8.14	2.19	CN1CCC(Oc2ccccc2-c2cc(C(N)=O)c(NC(N)=O)s2)C1 (stereo not drawn) [2-[(Aminocarbonyl)amino]-5-(2-[{1-methylpyrrolidin-3-yl}oxy]phenyl)-3-thiophenecarboxamide, reference compound]
30 nM	5.88	1.86	COCCN1CCC(Oc2ccccc2-c2cc(C(N)=O)c(NC(N)=O)s2)C1 (stereo not drawn) [2-[(Aminocarbonyl)amino]-5-(2-{[1-(2-methoxyethyl)-pyrrolidin-3-yl]oxy}phenyl)-3-thiophenecarboxamide, reference compound]
150 nM	0.66	14.3	NC(=O)Nc1sc(-c2ccccc2OCCN2Cc3ccccc3C2)cc1C(N)=O [Example 5, 2-[(Aminocarbonyl)amino]-5-[2-{2-(1,3-dihydro-2H-isoindol-2-yl)ethoxy}phenyl]thiophene-3-carboxamide]
40 nM	1.07	15.7	NC(=O)Nc1sc(-c2ccccc2OC2CCN(Cc3ccccc3)C2)cc1C(N)=O (stereo not drawn) [Example 7, 2-[(Aminocarbonyl)amino]-5-[2-{[1-benzylpyrrolidin-3-yl]oxy}phenyl]thiophene-3-carboxamide]
1430 nM	1.26	23.6	NC(=O)Nc1cc(-c2ccccc2OCCN2Cc3ccccc3C2)sc1C(N)=O [Example 13, 3-[(Aminocarbonyl)amino]-5-[2-{2-(1,3-dihydro-2H-isoindol-2-yl)ethoxy}phenyl]thiophene-2-carboxamide]
